Data taken from PMC6804006, “Synthesis, Biological Activities and Docking Studies of Novel 4-(Arylaminomethyl)benzamide Derivatives as Potential Tyrosine Kinase Inhibitors” (Molecules, 2019).

Legend:
HER-4 = target: T1, HER-4 (Homo sapiens, UniProt Q15303); test: ADP-Glo kinase inhibitory assay, HER-4; assay type: biochemical; conditions: for inhibitory activity in relation to HER-4, in words: 10 nM, compared with imatinib; for inhibition at 0.01 µM: read-out: % Inhibition at 10 nM, HER-4
T1 construct: purchased Promega
Method: (§1) We investigated the kinase selectivity of targeted compounds against eight receptor tyrosine kinases including EGFR (epidermal growth factor receptor), HER-2 and HER4 (human epidermal growth factor receptor), IGF1R (insulin like growth factor 1 receptor), InsR (gene insulin receptor), KDR (kinase insert domain receptor), and PDGFRa and PDGFRb (platelet-derived growth factor receptors). The assay was performed using the Kinase-Glo Plus luminescence kinase assay kit (TK-1+ADP-Glo™, Promega, San Diego, CA, USA). It measures kinase activity by quantitating the amount of ATP remaining in solution following a kinase reaction.
(§2) The assay was performed using a Kinase Selectivity Profiling System (TK-1+ADP-Glo™ Assay and TK-2+ADP-Glo™ Assay, Promega), where the kinase activity was measured by quantifying the amount of ADP produced during a kinase reaction. The assay is performed in two steps; firstly, after the kinase reaction, an equal volume of ADP-Glo™ Reagent is added to terminate the kinase reaction and deplete the remaining ATP. Secondly, the Kinase Detection Reagent is added to simultaneously convert ADP to ATP and allow the newly synthesized ATP to be measured using a luciferase/luciferin reaction. The luminescent signal generated is proportional to the ADP concentration produced and is correlated with kinase activity. Our compounds were diluted with kinase buffer (5% DMSO), and 1 μL of the dilution was added to a 5-μL reaction so that the final concentration of DMSO was 1% in all of reactions. All of the enzymatic reactions were conducted at 23 °C for 60 min. The 5-μL reaction mixture contained 1µL of the compound solution, 2µL of the enzyme solution, and 2 µL of kinase substrate. After the enzymatic reaction, 5 µL of ADP-Glo™ Reagent (Promega, USA) was added to each reaction, and the plate was incubated for 40 min at 23 °C. Then, 10 µL of Kinase Detection Reagent (Promega, USA) was added to each reaction, and the plate was incubated for 30 min at 23 °C. Luminescence signal was measured using an Infinite M 200 plate reader (Tecan, Switzerland).
(§3) Kinase activity assays were performed in duplicate at each concentration. The luminescence data were analyzed using the computer software, Magellan™. The difference between luminescence intensities in the absence of Kinase (Lut) and in the presence of Kinase (Luc) was defined as 100% activity (Lut − Luc).

[1] = tested on: RPMI 1788 (B lymphocyte, human normal cells); test: MTT assay on normal cells RPMI 1788; assay type: cell-based; conditions: MTT 48 h
Method: (§4) Each in vitro experiment was performed at least in triplicate, and the standard deviation of absorbance was less than 10% of the mean. For the in vitro assays, a stock solution (1% DMSO in the appropriate buffer with the tested compound diluted under sonication) was prepared from which several dilutions were made with the appropriate buffer.
(§5) Human cell lines were obtained from the Institute of Cytology, Russian Academy of Sciences. The cell lines studied were maintained in RPMI 1640 medium (AppliChem, Darmstadt, Germany) supplemented with 20% (HL-60, RPMI 1788) fetal calf serum (HyClone, Cramlington, UK), in DMEM (A 549) and Eagle’s MEM (AppliChem) (MCF7, HeLa) with 10% fetal calf serum (HyClone). Cells were cultivated at 37 °C in a humidified atmosphere of 5% CO2. Cellular sensitivities to clofarabine and its lipid derivatives were measured with the MTT assay. Cells were plated in triplicate in 96-well plates (10^5 cells/well for suspended cell cultures and 5 × 10^3 cells/well for monolayer cultures); on the same day (suspended cell cultures) or on the following day (monolayer cultures), compounds were added at the appropriate dilutions. Plates were incubated under standard conditions for 48 h. Thereafter, 10 μL of MTT (Sigma) in phosphate-buffered saline (5 mg/mL) was added. The plates were incubated for an additional 4 h, and 150 μL of dimethyl sulfoxide (DMSO) was added to dissolve the formazan crystals. The optical density was read on a HALO MPR-95 Microplate Reader (Dynamica Scientific Ltd., Australia) at 570 nm. The antiproliferative effects were determined as degrees of inhibition of tumor cells (%).

HeLa (cervix carcinoma) = test: MTT anti-proliferative assay, HeLa; assay type: cell-based; conditions: Homo sapiens, 48 h, 50% growth inhibition
Method: as §4
as §5, with “The cell lines studied were maintained in RPMI 1640 medium (AppliChem, Darmstadt, Germany) supplemented with 20% (HL-60, RPMI 1788) fetal calf serum (HyClone, Cramlington, UK), in DMEM (A 549) and Eagle’s MEM (AppliChem) (MCF7, HeLa) with 10% fetal calf serum (HyClone). Cells were cultivated at 37 °C in a humidified atmosphere of 5% CO2.” left out

[2] = tested on: OKP-GS (carcinoma of the kidney); test: MTT anti-proliferative assay, OKP-GS; assay type: cell-based; conditions: Homo sapiens, 48 h, 50% growth inhibition
Method: as §4
as §5, with “The cell lines studied were maintained in RPMI 1640 medium (AppliChem, Darmstadt, Germany) supplemented with 20% (HL-60, RPMI 1788) fetal calf serum (HyClone, Cramlington, UK), in DMEM (A 549) and Eagle’s MEM (AppliChem) (MCF7, HeLa) with 10% fetal calf serum (HyClone). Cells were cultivated at 37 °C in a humidified atmosphere of 5% CO2.” left out

PDGFRb = target: T2, PDGFRb (Homo sapiens, UniProt P09619); test: ADP-Glo kinase inhibitory assay, PDGFRb; assay type: biochemical; conditions: read-out: % Inhibition at 10 nM, PDGFRb
T2 construct: purchased Promega
Method: as §1, §2, §3

IGF1R = target: T3, IGF1R (Homo sapiens, UniProt P08069); test: ADP-Glo kinase inhibitory assay, IGF1R; assay type: biochemical; conditions: read-out: % Inhibition at 10 nM, IGF1R
T3 construct: purchased Promega
Method: as §1, §2, §3

EGFR = target: T4, EGFR (Homo sapiens, UniProt P00533); test: ADP-Glo kinase inhibitory assay, EGFR; assay type: biochemical; conditions: read-out: % Inhibition at 10 nM, EGFR
T4 construct: purchased Promega
Method: as §1, §2, §3

A549 (lung carcinoma) = test: MTT anti-proliferative assay, A-549; assay type: cell-based; conditions: Homo sapiens, 48 h, 50% growth inhibition
Method: as §4
as §5, with “The cell lines studied were maintained in RPMI 1640 medium (AppliChem, Darmstadt, Germany) supplemented with 20% (HL-60, RPMI 1788) fetal calf serum (HyClone, Cramlington, UK), in DMEM (A 549) and Eagle’s MEM (AppliChem) (MCF7, HeLa) with 10% fetal calf serum (HyClone). Cells were cultivated at 37 °C in a humidified atmosphere of 5% CO2.” left out

[3] = tested on: K-562 (chronic myelogenous leukemia); test: MTT anti-proliferative assay, K-562; assay type: cell-based; conditions: Homo sapiens, K562, 48 h, 50% growth inhibition
Method: as §4
as §5, with “The cell lines studied were maintained in RPMI 1640 medium (AppliChem, Darmstadt, Germany) supplemented with 20% (HL-60, RPMI 1788) fetal calf serum (HyClone, Cramlington, UK), in DMEM (A 549) and Eagle’s MEM (AppliChem) (MCF7, HeLa) with 10% fetal calf serum (HyClone). Cells were cultivated at 37 °C in a humidified atmosphere of 5% CO2.” left out

PDGFRa = target: T5, PDGFRa (Homo sapiens, UniProt P16234); test: ADP-Glo kinase inhibitory assay, PDGFRa; assay type: biochemical; conditions: read-out: % Inhibition at 10 nM, PDGFRa
T5 construct: purchased Promega
Method: as §1, §2, §3

KDR (VEGFR2) = target: T6, KDR (VEGFR2) (Homo sapiens, UniProt P35968); test: ADP-Glo kinase inhibitory assay, KDR; assay type: biochemical; conditions: 10 nM
T6 construct: purchased Promega
Method: as §1
Vascular endothelial growth factor receptor 2 (VEGFR2), also called kinase insert domain receptor (KDR), is a tyrosine kinase receptor for VEGFs that plays a central role in tumor angiogenesis; therefore, the inhibition of VEGFR2 is a promising therapeutic strategy for inhibiting angiogenesis and tumor growth.
as §2, §3

HER-2 = target: T7, HER-2 (Homo sapiens, UniProt P04626); test: ADP-Glo kinase inhibitory assay, HER-2; assay type: biochemical; conditions: read-out: % Inhibition at 10 nM, HER-2
T7 construct: purchased Promega
Method: as §1, §2, §3

InsR = target: T8, InsR (Homo sapiens, UniProt P06213); test: ADP-Glo kinase inhibitory assay, InsR; assay type: biochemical; conditions: for inhibition at 0.01 µM: read-out: % Inhibition at 10 nM, InsR; for selectivity for the gene insulin receptor, in words: 10 nM, panel of eight receptor tyrosine kinases
T8 construct: purchased Promega
Method: as §1, §2, §3

[4] = tested on: HL-60 (promyelocytic leukemia); test: MTT anti-proliferative assay, HL-60; assay type: cell-based, human; conditions: 50% growth inhibition
Method: as §4
as §5, with “The cell lines studied were maintained in RPMI 1640 medium (AppliChem, Darmstadt, Germany) supplemented with 20% (HL-60, RPMI 1788) fetal calf serum (HyClone, Cramlington, UK), in DMEM (A 549) and Eagle’s MEM (AppliChem) (MCF7, HeLa) with 10% fetal calf serum (HyClone). Cells were cultivated at 37 °C in a humidified atmosphere of 5% CO2.” left out

[5] = tested on: MCF-7 (breast adenocarcinoma); test: MTT anti-proliferative assay, MCF-7; assay type: cell-based; conditions: Homo sapiens, MCF7, 48 h, 50% growth inhibition
Method: as §4
as §5, with “The cell lines studied were maintained in RPMI 1640 medium (AppliChem, Darmstadt, Germany) supplemented with 20% (HL-60, RPMI 1788) fetal calf serum (HyClone, Cramlington, UK), in DMEM (A 549) and Eagle’s MEM (AppliChem) (MCF7, HeLa) with 10% fetal calf serum (HyClone). Cells were cultivated at 37 °C in a humidified atmosphere of 5% CO2.” left out

T7 sequence (P04626 23-1255): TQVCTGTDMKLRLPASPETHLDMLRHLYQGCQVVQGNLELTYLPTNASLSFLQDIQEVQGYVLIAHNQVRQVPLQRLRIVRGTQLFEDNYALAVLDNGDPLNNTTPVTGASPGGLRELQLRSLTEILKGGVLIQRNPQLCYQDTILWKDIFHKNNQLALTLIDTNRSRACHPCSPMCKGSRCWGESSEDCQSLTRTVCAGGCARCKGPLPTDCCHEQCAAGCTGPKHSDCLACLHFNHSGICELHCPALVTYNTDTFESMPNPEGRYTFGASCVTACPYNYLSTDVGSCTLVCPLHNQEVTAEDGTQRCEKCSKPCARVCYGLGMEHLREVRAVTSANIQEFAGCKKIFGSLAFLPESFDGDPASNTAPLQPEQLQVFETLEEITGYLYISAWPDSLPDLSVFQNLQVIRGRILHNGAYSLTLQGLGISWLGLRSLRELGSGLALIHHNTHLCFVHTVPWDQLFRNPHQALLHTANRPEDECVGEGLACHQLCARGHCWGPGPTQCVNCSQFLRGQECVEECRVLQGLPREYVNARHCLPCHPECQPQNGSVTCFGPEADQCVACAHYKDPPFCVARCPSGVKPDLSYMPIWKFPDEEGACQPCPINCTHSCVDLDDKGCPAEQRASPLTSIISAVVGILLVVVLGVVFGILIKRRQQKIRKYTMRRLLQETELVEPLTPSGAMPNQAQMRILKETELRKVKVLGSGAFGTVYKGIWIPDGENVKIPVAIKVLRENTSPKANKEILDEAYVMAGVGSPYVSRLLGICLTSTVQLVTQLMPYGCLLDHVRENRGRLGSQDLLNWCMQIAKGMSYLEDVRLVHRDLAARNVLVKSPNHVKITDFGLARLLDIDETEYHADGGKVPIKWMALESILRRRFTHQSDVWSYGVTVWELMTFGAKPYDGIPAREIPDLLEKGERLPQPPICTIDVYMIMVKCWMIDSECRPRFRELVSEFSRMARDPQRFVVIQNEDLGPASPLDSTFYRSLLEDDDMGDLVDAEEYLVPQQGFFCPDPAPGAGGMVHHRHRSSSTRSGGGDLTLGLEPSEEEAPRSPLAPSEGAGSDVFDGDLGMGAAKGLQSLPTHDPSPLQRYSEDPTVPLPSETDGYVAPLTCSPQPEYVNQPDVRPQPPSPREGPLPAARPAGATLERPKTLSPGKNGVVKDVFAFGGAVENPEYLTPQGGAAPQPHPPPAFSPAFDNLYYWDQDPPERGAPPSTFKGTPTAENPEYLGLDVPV
T5 sequence (P16234 24-1089): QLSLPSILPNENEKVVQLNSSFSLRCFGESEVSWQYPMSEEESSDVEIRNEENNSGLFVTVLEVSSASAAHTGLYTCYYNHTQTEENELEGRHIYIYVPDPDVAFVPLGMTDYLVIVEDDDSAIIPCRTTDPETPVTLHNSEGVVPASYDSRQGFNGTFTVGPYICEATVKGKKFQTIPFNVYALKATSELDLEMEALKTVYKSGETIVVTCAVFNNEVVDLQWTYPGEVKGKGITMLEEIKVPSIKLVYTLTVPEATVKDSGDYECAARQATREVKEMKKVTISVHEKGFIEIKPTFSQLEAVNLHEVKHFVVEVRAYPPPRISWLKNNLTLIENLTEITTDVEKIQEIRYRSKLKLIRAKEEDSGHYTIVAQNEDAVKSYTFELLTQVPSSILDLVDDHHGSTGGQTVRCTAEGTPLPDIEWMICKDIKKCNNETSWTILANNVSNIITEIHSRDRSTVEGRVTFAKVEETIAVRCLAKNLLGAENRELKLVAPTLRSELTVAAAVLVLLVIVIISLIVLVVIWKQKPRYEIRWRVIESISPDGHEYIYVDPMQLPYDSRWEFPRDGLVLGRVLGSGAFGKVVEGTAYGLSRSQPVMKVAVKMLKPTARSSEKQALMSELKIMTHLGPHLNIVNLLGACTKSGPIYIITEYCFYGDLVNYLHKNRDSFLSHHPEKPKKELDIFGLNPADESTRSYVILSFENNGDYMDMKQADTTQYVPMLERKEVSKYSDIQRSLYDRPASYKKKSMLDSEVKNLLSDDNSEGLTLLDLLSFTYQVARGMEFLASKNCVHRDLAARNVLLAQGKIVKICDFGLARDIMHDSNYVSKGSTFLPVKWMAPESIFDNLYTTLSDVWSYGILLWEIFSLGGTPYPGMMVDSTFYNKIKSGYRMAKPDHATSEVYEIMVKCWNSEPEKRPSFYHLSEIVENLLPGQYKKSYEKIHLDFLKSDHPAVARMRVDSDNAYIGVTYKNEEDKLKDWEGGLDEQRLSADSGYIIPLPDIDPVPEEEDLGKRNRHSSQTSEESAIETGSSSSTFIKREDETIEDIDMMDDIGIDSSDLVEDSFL
T4 sequence (P00533 25-1210): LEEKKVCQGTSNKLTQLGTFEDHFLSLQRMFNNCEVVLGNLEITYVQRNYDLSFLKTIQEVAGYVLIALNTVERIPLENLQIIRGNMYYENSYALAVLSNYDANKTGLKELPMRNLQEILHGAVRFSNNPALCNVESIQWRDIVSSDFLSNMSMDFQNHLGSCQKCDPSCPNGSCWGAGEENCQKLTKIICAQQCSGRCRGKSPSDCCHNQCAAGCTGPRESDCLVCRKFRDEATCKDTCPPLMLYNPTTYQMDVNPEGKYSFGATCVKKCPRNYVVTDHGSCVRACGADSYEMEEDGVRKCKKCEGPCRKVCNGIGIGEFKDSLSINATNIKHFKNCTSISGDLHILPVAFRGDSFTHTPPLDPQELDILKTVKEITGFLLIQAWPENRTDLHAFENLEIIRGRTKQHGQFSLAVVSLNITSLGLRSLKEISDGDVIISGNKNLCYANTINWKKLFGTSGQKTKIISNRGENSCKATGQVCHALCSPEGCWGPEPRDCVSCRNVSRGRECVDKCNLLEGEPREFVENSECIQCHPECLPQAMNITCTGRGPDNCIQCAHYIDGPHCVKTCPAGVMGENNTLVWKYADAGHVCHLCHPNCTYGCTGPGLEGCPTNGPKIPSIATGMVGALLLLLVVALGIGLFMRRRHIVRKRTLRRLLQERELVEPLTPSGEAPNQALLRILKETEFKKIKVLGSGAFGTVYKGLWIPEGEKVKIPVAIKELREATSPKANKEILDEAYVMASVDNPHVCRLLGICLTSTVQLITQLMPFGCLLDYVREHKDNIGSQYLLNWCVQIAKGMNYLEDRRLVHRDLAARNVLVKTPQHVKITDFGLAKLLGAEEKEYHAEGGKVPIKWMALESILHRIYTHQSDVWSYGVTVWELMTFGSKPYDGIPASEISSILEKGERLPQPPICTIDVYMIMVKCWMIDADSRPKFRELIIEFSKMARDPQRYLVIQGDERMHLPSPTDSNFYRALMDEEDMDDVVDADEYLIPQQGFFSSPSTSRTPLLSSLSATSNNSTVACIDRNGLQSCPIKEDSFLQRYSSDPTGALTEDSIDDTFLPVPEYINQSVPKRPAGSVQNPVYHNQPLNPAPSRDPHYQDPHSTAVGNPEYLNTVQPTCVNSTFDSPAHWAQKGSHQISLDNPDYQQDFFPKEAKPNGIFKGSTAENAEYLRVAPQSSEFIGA
T1 sequence (Q15303 26-1308): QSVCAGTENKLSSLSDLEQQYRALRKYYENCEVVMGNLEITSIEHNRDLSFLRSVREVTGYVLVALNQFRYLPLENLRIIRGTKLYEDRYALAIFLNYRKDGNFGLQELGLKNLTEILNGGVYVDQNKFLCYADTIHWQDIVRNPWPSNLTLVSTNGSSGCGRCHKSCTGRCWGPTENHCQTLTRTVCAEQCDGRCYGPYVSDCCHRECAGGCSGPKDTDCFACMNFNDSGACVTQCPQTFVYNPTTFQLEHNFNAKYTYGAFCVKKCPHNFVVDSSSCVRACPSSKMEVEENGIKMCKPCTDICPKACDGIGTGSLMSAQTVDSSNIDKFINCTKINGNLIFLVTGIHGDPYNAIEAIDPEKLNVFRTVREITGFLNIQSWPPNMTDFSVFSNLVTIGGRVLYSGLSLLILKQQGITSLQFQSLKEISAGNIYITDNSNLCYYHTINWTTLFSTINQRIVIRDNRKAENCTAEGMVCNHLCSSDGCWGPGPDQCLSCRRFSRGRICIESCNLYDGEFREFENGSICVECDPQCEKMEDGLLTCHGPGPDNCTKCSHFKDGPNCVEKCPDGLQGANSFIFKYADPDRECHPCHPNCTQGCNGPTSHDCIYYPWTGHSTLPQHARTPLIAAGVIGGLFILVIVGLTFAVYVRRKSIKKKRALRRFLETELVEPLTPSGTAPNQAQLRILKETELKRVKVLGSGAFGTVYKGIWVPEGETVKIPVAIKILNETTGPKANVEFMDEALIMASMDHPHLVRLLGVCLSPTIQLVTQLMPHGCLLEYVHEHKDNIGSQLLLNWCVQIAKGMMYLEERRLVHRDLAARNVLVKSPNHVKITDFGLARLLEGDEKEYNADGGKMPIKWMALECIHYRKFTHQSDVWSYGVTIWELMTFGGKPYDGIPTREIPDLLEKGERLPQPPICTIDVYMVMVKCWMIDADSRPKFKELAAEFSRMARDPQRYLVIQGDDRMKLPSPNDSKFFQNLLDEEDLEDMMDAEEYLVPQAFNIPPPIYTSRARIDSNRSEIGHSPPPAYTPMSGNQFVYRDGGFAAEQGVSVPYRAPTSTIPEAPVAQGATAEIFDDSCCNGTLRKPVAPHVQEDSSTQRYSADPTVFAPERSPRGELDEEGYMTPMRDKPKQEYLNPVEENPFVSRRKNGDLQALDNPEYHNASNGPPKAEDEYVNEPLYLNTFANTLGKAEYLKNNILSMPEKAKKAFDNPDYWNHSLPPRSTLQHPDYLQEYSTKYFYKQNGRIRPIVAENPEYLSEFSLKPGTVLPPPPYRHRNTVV

Row | SMILES | inhibitory activity in relation to HER-4, in words (HER-4) | inhibition at 0.01 µM (HER-4) [%] | IC50 (HeLa (cervix carcinoma)) [µM] | IC50 [2] [µM] | inhibition at 0.01 µM (PDGFRb) [%] | inhibition at 0.01 µM (IGF1R) [%] | inhibition at 0.01 µM (EGFR) [%] | melting point [°C] | IC50 (A549 (lung carcinoma)) [µM] | IC50 [3] [µM] | inhibition at 0.01 µM (PDGFRa) [%] | inhibition at 0.01 µM (KDR (VEGFR2)) [%] | inhibition at 0.01 µM (HER-2) [%] | inhibition at 0.01 µM (InsR) [%] | IC50 ([4]; Homo sapiens, HL-60, 48 h) [µM] | IC50 [5] [µM] | selectivity for the gene insulin receptor, in words (InsR) | IC50 ([4]; 48 h) [µM] | inhibition at 100 µM [1] [%]
1 | CNC(=O)c1cc(Oc2ccc(NCc3ccc(C(=O)Nc4cc(-n5cnc(C)c5)cc(C(F)(F)F)c4)cc3)cc2)ccn1 [Compound 10, N-methyl-4-(4-((4-((3-(4-methyl-1H-imidazol-1-yl)-5-(trifluoromethyl)phenyl)carbamoyl)benzyl)amino)phenoxy)picolinamide] | comparable to imatinib | 51 | > 100 | 81 | 0 | 0 | 65 | 153 to 156 | > 100 | 40 | 66 | 27 | 0 | 46 | 8.2 | > 100 | – | – | 10.4
2 | Cc1cn(-c2cc(NCc3ccc(C(=O)Nc4cccc(C(F)(F)F)c4)cc3)cc(C(F)(F)F)c2)cn1 [Compound 13, 4-({[3-(4-Methyl-1H-imidazol-1-yl)-5-(trifluoromethyl)phenyl]amino}methyl)-N-[3-(trifluoromethyl)phenyl]benzamide] | comparable to imatinib | 54 | 57.5 | 52 | 8 | 0 | 92 | 129 to 131 | 55 | 5.6 | 59 | 20 | 34 | 0 | 46 | 69 | – | – | 9.36
3 | Cc1cn(-c2cc(NCc3ccc(C(=O)Nc4cc([N+](=O)[O-])ccc4C)cc3)cc(C(F)(F)F)c2)cn1 [Compound 15, 4-({[3-(4-Methyl-1H-imidazol-1-yl)-5-(trifluoromethyl)phenyl]amino}methyl)-N-{[(2-methyl-5-nitrophenyl) benzoate] | – | 0 | 78.5 | > 100 | 0 | 0 | 0 | 205 to 208 | 73 | 31 | 0 | 0 | 0 | 43 | 5.6 | > 100 | high selectivity | 5.8 | 15.9

Molecules with a lower IC50 (HeLa (cervix carcinoma)), results first:

Row | inhibitory activity in relation to HER-4, in words (HER-4) | inhibition at 0.01 µM (HER-4) [%] | IC50 (HeLa (cervix carcinoma)) [µM] | IC50 [2] [µM] | inhibition at 0.01 µM (PDGFRb) [%] | inhibition at 0.01 µM (IGF1R) [%] | inhibition at 0.01 µM (EGFR) [%] | melting point [°C] | IC50 (A549 (lung carcinoma)) [µM] | IC50 [3] [µM] | inhibition at 0.01 µM (PDGFRa) [%] | inhibition at 0.01 µM (KDR (VEGFR2)) [%] | inhibition at 0.01 µM (HER-2) [%] | inhibition at 0.01 µM (InsR) [%] | IC50 ([4]; Homo sapiens, HL-60, 48 h) [µM] | IC50 [5] [µM] | selectivity for the gene insulin receptor, in words (InsR) | IC50 ([4]; 48 h) [µM] | SMILES | inhibition at 100 µM [1] [%]
4 | comparable to imatinib | 49 | 54 | 54.3 | 0 | 0 | 91 | 83 to 85 | 61 | 53 | 55 | 16 | 0 | 0 | 51 | 57 | – | – | Cc1cn(-c2cc(NC(=O)c3ccc(CNc4cccc(C(F)(F)F)c4)cc3)cc(C(F)(F)F)c2)cn1 [Compound 11, N-(3-(4-methyl-1H-imidazol-1-yl)-5-(trifluoromethyl)phenyl)-4-(((3-(trifluoromethyl)phenyl)amino)methyl)benzamide] | 15.5
5 | – | 0 | 11.5 | 78 | 0 | 3 | 0 | 98 to 102 | > 100 | 30.7 | 0 | 0 | 0 | 52 | 38 | 63 | high selectivity | – | COc1ccc(C(=O)N2CCN(Cc3ccc(C(=O)Nc4cc(-n5cnc(C)c5)cc(C(F)(F)F)c4)cc3)CC2)cc1 [Compound 28i, 4-{[4-(4-Methoxybenzoyl)piperazin-1-yl]methyl}-N-[3-(4-methyl-1H-imidazol-1-yl)-5-(trifluoromethyl)phenyl]benzamide] | 6.32
